The text below walks through data of patent US10294202B2, “Pyrrolidinones as herbicides” (FMC Corporation, priority 2013, dated 2019).

SMILES strings stand for the structures. Like-named read-outs stand apart in the source and are kept apart here.

One test has as its system crabgrass, large. As to the kind of experiment: Test A pre-/postemergence herbicide test. To be noted: for Crabgrass, Large plant response rating: Preemergence, visual rating on 0 to 100 scale (0 no effect, 100 complete control). In kind it is in vivo, Digitaria sanguinalis. The method, boiled down:
(§1)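 Seeds in loam–sand blend received preemergence directed soil spray; separately, plants 2–10 cm at one- to two-leaf stage received postemergence spray, both with test chemicals in non-phytotoxic solvent with surfactant. After ~10 days in greenhouse, injury rated visually against untreated controls, 0 (no effect) to 100 (complete control).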

Another test has as its system morningglory. As to the kind of experiment: Test A pre-/postemergence herbicide test. In kind it is in vivo, Ipomoea spp. To be noted: for Morningglory plant response rating: Preemergence, visual rating on 0 to 100 scale (0 no effect, 100 complete control); for pest or weed control at 500 g/ha: Ipomoea, 240 h, read-out: Plant response rating, Morningglory. In outline: as §1

The test system of test [1] is kochia. As to the kind of experiment: Test C pre-/postemergence herbicide test. It counts as in vivo, Kochia scoparia. The source says: Seeds of plant species selected from blackgrass (Alopecurus myosuroides), ryegrass, Italian (Italian ryegrass, Lolium multiflorum), wheat (winter wheat, Triticum aestivum), galium (catchweed bedstraw, Galium aparine), corn (Zea mays), crabgrass, large (large crabgrass, Digitaria sanguinalis), foxtail, giant (giant foxtail, Setaria faberii), johnsongrass (Sorghum halepense), lambsquarters (Chenopodium album), morningglory (Ipomoea coccinea), nutsedge, yellow (yellow nutsedge, Cyperus esculentus), pigweed (Amaranthus retroflexus), ragweed (common ragweed, Ambrosia elatior), soybean (Glycine max), barnyardgrass (Echinochloa crus-galli), oilseed rape (Brassica napus), waterhemp (common waterhemp, Amaranthus rudis), kochia (Kochia scoparia), oat, wild (wild oat, Avena fatua), surinam grass (Brachiaria decumbens), foxtail, green (green foxtail, Setaria viridis), goosegrass (Eleusine indica), bromegrass, downy (downy bromegrass, Bromus tectorum), nightshade (eastern black nightshade, Solanum ptycanthum), cocklebur (common cocklebur, Xanthium strumarium), cupgrass, woolly (woolly cupgrass, Eriochloa villosa), bermudagrass (Cynodon dactylon), sunflower, (common oilseed sunflower, Helianthus annuus), Russian thistle (Salsola kali) and velvetleaf (Abutilon theophrasti) were planted into a blend of loam soil and sand and treated preemergence with test chemicals formulated in a non-phytotoxic solvent mixture which included a surfactant. At the same time, plants selected from these crop and weed species and also barley (winter barley, Hordeum vulgare), […]), chickweed (common chickweed, Stellaria media), deadnettle (henbit deadnettle, Lamium amplexicaule), and canarygrass (littleseed canarygrass, Phalaris minor) were planted in pots containing Redi-Earth® planting medium (Scotts Company, 14111 Scottslawn Road, Marysville, Ohio 43041) comprising spaghnum peat moss, vermiculite, wetting agent and starter nutrients and treated with postemergence applications of test chemicals formulated in the same manner. Plants ranged in height from 2 to 18 cm (1- to 4-leaf stage) for postemergence treatments. Treated plants and controls were maintained in a greenhouse for 13 to 15 days, after which time all species were compared to controls and visually evaluated. Plant response ratings, summarized in Table C, are based on a scale of 0 to 100 where 0 is no effect and 100 is complete control. A dash (-) response means no test result.

Another test deals with sedge, umbrella. Put plainly: Test C flooded paddy test. In kind it is in vivo, Cyperus difformis. The settings on record: Flood. In outline: (§2)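 Visual ratings from 0, no effect, to 100, complete control, were made against untreated controls after 13–15 greenhouse days. Compounds had gone straight into paddy water 3 cm above the soil, kept at that depth, on 2-leaf-stage plants.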

The next test deals with ducksalad. Put plainly: Test C flooded paddy test. It counts as in vivo, Heteranthera limosa. To be noted: Flood. In outline: as §2
A further test relates to barnyardgrass. Put plainly: Test C flooded paddy test. The settings on record: Flood. In kind it is in vivo, Echinochloa crus-galli. In outline:
as §2

For test [2], the system named is kochia. As to the kind of experiment: Test A pre-/postemergence herbicide test. In kind it is in vivo, Kochia scoparia. The method, boiled down:
as §1

The subject of a further test is blackgrass. As to the kind of experiment: Test A postemergence herbicide test. In kind it is in vivo, Alopecurus myosuroides. The method, boiled down:
(§3)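 Plants at the one- to two-leaf stage, 2–10 cm tall, grown in loam/sand pots, received postemergence sprays of the test chemicals. After about 10 days in the greenhouse, injury was scored visually against untreated controls on a 0–100 scale (0 none, 100 complete control).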

The subject of another test is galium. As to the kind of experiment: Test A postemergence herbicide test. In kind it is in vivo, Galium aparine. The method, boiled down:
as §3

The mark [3] stands for this setting: Postemergence, 125 g ai/ha, 0 to 100 scale, 0 no effect, 100 complete control.
[4] abbreviates: Postemergence, 500 g ai/ha, 0 to 100 scale (0 no effect, 100 complete control).
[5] abbreviates: preemergence, 500 g ai/ha, 0 to 100 scale.
[6] abbreviates: Preemergence, 62 g ai/ha, scale 0 to 100.
Where [7] appears, read: Preemergence, 125 g ai/ha, scale 0 to 100 (0 no effect, 100 complete control).
Where [8] appears, read: 62 g ai/ha, scale of 0 to 100 where 0 is no effect and 100 is complete control, 13 to 15 days.
Where [9] appears, read: Postemergence, 250 g ai/ha, scale 0 to 100 (0 no effect, 100 complete control).
Where [10] appears, read: 125 g ai/ha, scale of 0 to 100 where 0 is no effect and 100 is complete control, 13 to 15 days.
Where [11] appears, read: 125 g ai/ha, visual rating on 0 to 100 scale (0 no effect, 100 complete control), approx. 10 days.
The mark [12] stands for this setting: 500 g ai/ha, 0 to 100 scale (0 no effect, 100 complete control).

Turning to `O=C1NCC(c2ccc(Cl)c(Cl)c2)C1C(=O)Nc1ccccc1F` (racemic) [Compound 14], the “Plant response rating, Crabgrass, Large” value in the test with crabgrass, large (setting [3]) came to 80; with crabgrass, large (setting [4]), 90; in the test with crabgrass, large (setting [5]), 90. The “Crabgrass, Large plant response rating” value in the test on crabgrass, large (125 g ai/ha) came out at 90. Also, the “Plant response rating, Morningglory” value in the test with morningglory (setting [3]), with morningglory (setting [4]) and in the test on morningglory (setting [5]) was 0 in each case. For the same compound, in the test on morningglory (125 g ai/ha), the “Morningglory plant response rating” value was found to be 0. For the same compound, the “Plant response rating, Kochia” value in the test on kochia [1] (setting [6]) and in the test on kochia [1] (setting [7]) was 0 each time. The “Plant response rating, Sedge, Umbrella” value with sedge, umbrella (setting [8]) stood at 0; in the test on sedge, umbrella (250 g ai/ha, scale 0 to 100), 20. Moreover, the “Plant response rating, Ducksalad” value stood at 40 with ducksalad (setting [8]) and 85 in the test on ducksalad (250 g ai/ha, scale 0 to 100). Further, the “Plant response rating, Barnyardgrass” value with barnyardgrass (setting [8]) is listed as 0; with barnyardgrass (250 g ai/ha, scale 0 to 100) it was 0.

Take `O=C1NCC(c2ccc(F)c(F)c2)C1C(=O)Nc1cccc(F)c1F` (racemic) [Compound 101]: the “Plant response rating, Crabgrass, Large” value is on record as 80 with crabgrass, large (setting [3]); 80 in the test with crabgrass, large (setting [4]); 100 in the test with crabgrass, large (setting [5]). Moreover, in the test with crabgrass, large (125 g ai/ha), the “Crabgrass, Large plant response rating” value stood at 90. Moreover, the “Plant response rating, Morningglory” value with morningglory (setting [3]) is given as 30; in the test on morningglory (setting [4]) it was 60; with morningglory (setting [5]) it was 50. For the same compound, the “Morningglory plant response rating” value in the test on morningglory (125 g ai/ha) is on record as 0. For the same compound, the “Plant response rating, Kochia” value in the test with kochia [1] (Postemergence, 31 g ai/ha, scale 0 (no effect) to 100 (complete control)) is given as 45; in the test with kochia [1] (Postemergence, 62 g ai/ha, scale 0 to 100 (0 no effect, 100 complete control)), 30; with kochia [1] (Postemergence, 125 g ai/ha, scale 0 to 100 (0 no effect, 100 complete control)) it was 50; in the test with kochia [1] (setting [9]), 50. Moreover, the “Plant response rating, Sedge, Umbrella” value is 0 with sedge, umbrella (setting [10]); 0 in the test on sedge, umbrella (250 g ai/ha, scale 0 to 100); 0 in the test on sedge, umbrella (500 g ai/ha, scale 0 to 100); 0 with sedge, umbrella (1000 g ai/ha, scale 0 to 100). Also, the “Plant response rating, Ducksalad” value with ducksalad (setting [10]) was determined as 90; in the test on ducksalad (250 g ai/ha, scale 0 to 100), 95; in the test on ducksalad (500 g ai/ha, scale 0 to 100), 100; in the test with ducksalad (1000 g ai/ha, scale 0 to 100), 100. Moreover, the “Plant response rating, Barnyardgrass” value in the test with barnyardgrass (setting [10]) came out at 20; in the test on barnyardgrass (250 g ai/ha, scale 0 to 100), 55; with barnyardgrass (500 g ai/ha, scale 0 to 100), 60; in the test with barnyardgrass (1000 g ai/ha, scale 0 to 100) it was 75.

Consider `O=C1NCCC1C(=O)N(c1ccc(F)c(F)c1)c1ccccc1F` (stereo not drawn) [Compound 5, N-(3,4-difluorophenyl)-N-(2-fluorophenyl)-2-oxo-3-pyrrolidinecarboxamide], for which, in the test with crabgrass, large (Digitaria sanguinalis, post-emergence, 240 h, Postemergence, 125 g ai/ha, 0 to 100 scale, 0 no effect, 100 complete control, read-out: Plant response rating, Crabgrass, Large), the pest or weed control at 125 g/ha stood at 70%. Moreover, the pest or weed control at 500 g/ha in the test with crabgrass, large (Digitaria sanguinalis, post-emergence, 240 h, Postemergence, 500 g ai/ha, 0 to 100 scale (0 no effect, 100 complete control), read-out: Plant response rating, Crabgrass, Large) came out at 80%; in the test with crabgrass, large (Digitaria sanguinalis, pre-emergence, 240 h, preemergence, 500 g ai/ha, 0 to 100 scale, read-out: Plant response rating, Crabgrass, Large), 90%; with morningglory (post-emergence, Postemergence, 500 g ai/ha, 0 to 100 scale (0 no effect, 100 complete control)) it was 10%; in the test on morningglory (pre-emergence, preemergence, 500 g ai/ha, 0 to 100 scale), 0%. Besides, the “Crabgrass, Large plant response rating” value in the test on crabgrass, large (125 g ai/ha) turned out to be 80. Moreover, the “Morningglory plant response rating” value in the test on morningglory (125 g ai/ha) was determined as 0. Also, the “Plant response rating, Kochia” value in the test on kochia [1] (setting [6]) and with kochia [1] (setting [7]) was 0 throughout. Moreover, the “Plant response rating, Sedge, Umbrella” value in the test on sedge, umbrella (setting [8]) is given as 0; in the test on sedge, umbrella (setting [10]), 0; in the test with sedge, umbrella (250 g ai/ha, scale 0 to 100) it was 0. In addition, the “Plant response rating, Ducksalad” value with ducksalad (setting [8]) amounted to 30; in the test with ducksalad (setting [10]), 70; in the test with ducksalad (250 g ai/ha, scale 0 to 100), 80. For the same compound, the “Plant response rating, Barnyardgrass” value with barnyardgrass (setting [8]) is listed as 0; with barnyardgrass (setting [10]), 20; with barnyardgrass (250 g ai/ha, scale 0 to 100), 55.

Regarding `O=C1NCC(c2cccc(Br)c2)C1C(=O)Nc1ccc(F)c(F)c1F` (stereo not drawn) [Compound 310], the “Plant response rating, Kochia” value in the test on kochia [2] (Postemergence, 125 g ai/ha, visual rating on 0 to 100 scale (0 no effect, 100 complete control), approx. 10 days) worked out at 30; with kochia [2] (setting [4]), 30; in the test with kochia [2] (Preemergence, 125 g ai/ha, 0 to 100 scale where 0 is no effect and 100 is complete control), 30; in the test on kochia [1] (Postemergence, 31 g ai/ha, scale 0 to 100 (0 no effect, 100 complete control)), 40; with kochia [1] (Postemergence, 62 g ai/ha, scale 0 (no effect) to 100 (complete control)) it was 50; in the test with kochia [1] (setting [9]), 80. Further, the “Kochia plant response rating” value with kochia [2] (Preemergence, 500 g ai/ha, visual rating on 0 to 100 scale (0 no effect, 100 complete control)) is 70. Also, the entries for the “Plant response rating, Blackgrass” value in the test with blackgrass (setting [11]) and with blackgrass (setting [12]) were 30 and 50, respectively. For the same compound, the “Plant response rating, Galium” value with galium (setting [11]) and in the test with galium (setting [12]) was 20 in each case.
